From article PMC9786170, “The Pharmacological Potential of Novel Melittin Variants from the Honeybee and Solitary Bees against Inflammation and Cancer” (Toxins, 2022)
Entries after “also recorded” stand apart in the source; their conditions may differ.

Legend:
[1] = test system: HEK293T cells; assay: Ca2+ inhibition assay (ionomycin-stimulated, Fluo-8); format: cell-based, human; details: Fluo-8, peptide 30 min, then 5 µM ionomycin, n = 4
Description: (§1) Figure 2 Melittin derivates influence cellular Ca^2+ and IP1 levels. (A) For the Ca^2+ induction assay, Fluo-8 pretreated HEK293-T cells were incubated with melittin derivates in the indicated concentrations and the fluorescence was detected. (B) For the Ca^2+ inhibition assay, Fluo-8 pretreated HEK293-T cells were incubated with peptides in the indicated concentrations for 30 min, stimulated with 5 µM ionomycin, and the fluorescence was detected. (C) IP3 has a short lifetime and is rapidly degraded to IP1; therefore, IP1 was determined. For the IP1/IP3 induction assay (left panel), HEK293T cells were incubated with melittin peptides in the indicated concentration for 2 h, a detection reagent was added, and the fluorescence resonance energy transfer signal was detected. For the IP1/IP3 inhibition assay (right panel), HEK293T cells were incubated with melittin peptides in the indicated concentration for 30 min and stimulated with 20 µM ionomycin for 1.5 h. After the addition of the detection reagent, the fluorescence resonance energy transfer signal was detected. Data are expressed as mean ± SEM. (A, B, C (left)) n = 4, (C (right)) n = 3. * p ≤ 0.05 versus control.
(§2) For analysis, 5 × 10^4 HEK293 cells or 2 × 10^4 MDA-MB-231 cells were seeded in a 96-well poly-D-lysine plate, incubated at 37 °C for 24 h, and treated with 4 µM Fluo-8-AM in HBSS for 1 h at 37 °C. After 1 h, the Fluo-8/HBSS was replaced by 100 µL HBSS. Five images per second were taken using an ImageXpress Micro Confocal High Content Imaging System (Molecular Device, San Jose, CA, USA). Melittin peptides (0.25, 2.5, and 25 µg/mL), DMSO (negative control), or 5 µM ionomycin (Sigma Aldrich; Taufkirchen, Germany) (positive control) were added to the cells. For the next 20 s, an image was obtained every second. For the inhibition assay, the peptide-treated samples (30 min) were treated with 5 µM ionomycin and for the next 20 s, an image was obtained every second. The data were analyzed with the MetaXpress Software Version 6 (Molecular Devices, San Jose, CA, USA). A threshold of fluorescence intensity was defined using cells before treatment, and all cells with a fluorescence signal above the threshold level were counted. For the induction assay, the number of cells above the threshold in the toxin-treated samples were related to the cells in the DMSO-treated sample. For the inhibition assay, the number of cells above the threshold in the melittin-treated samples were related to the cells in the ionomycin-treated sample.

[2] = test system: RAW264.7 cells; assay: NO inhibition assay (LPS-stimulated, Griess); format: cell-based, murine; details: RAW264.7, peptide 30 min, then 100 ng/mL LPS 24 h, n = 3
Description: Figure 4 Influence of melittin derivates on inflammation-associated cell functions. (A,B) For the NO induction assay (A), RAW264.7 cells were treated with melittin peptides in the indicated concentrations for 24 h. For the NO inhibition assay (B), RAW264.7 cells were pretreated with melittin peptides in the indicated concentrations for 30 min and then stimulated with 100 ng/mL LPS for 24 h. NO was detected in the supernatant using the Griess method. […] THP-1 cell adhesion under static conditions. HUVECs were grown to confluence, preincubated with bee venoms for 30 min, and activated with TNF (10 ng/mL) for 24 h. For the leukocyte adhesion assay, untreated THP-1 cells were stained with CellTracker Green and were allowed to adhere to the treated HUVECs for 5 min. The adhesion of leukocytes onto Ecs was quantified by fluorescence measurements for all cell adhesion experiments. Data are expressed as means ± SEM, (A,B) n = 3, (C) n = 2. * p ≤ 0.05 vs. TNF (positive) control.
2 × 10^4 RAW264.7 macrophages/well were plated in a 96-well plate and cultured for 24 h at 37 °C. To investigate if the melittin peptides induce nitrogen oxide (NO) synthesis, the melittin peptides, control (DMSO), and positive control (100 ng/mL lipopolysaccharide (LPS)) were added. To evaluate the effect of melittin peptides on inhibiting NO synthesis, the cells were pre-incubated with peptides or control (DMSO) for 30 min before 100 ng/mL LPS were added. After 24 h supernatants were collected and stored at −80 °C.
NO was determined with the Griess method. Briefly, for the standard curve, different concentrations of sodium nitrite (0–50 µM) were prepared in the medium. A total of 80 µL cell supernatant or standard sample were added to a 96-well microplate and subsequently, 20 µL sulfanilamide solution (120 mg sulfanilamide in 30 mL 1 N hydrochloric acid) and 20 µL naphthylenediamine solution (180 mg N-(1-naphthyl)ethylenediamine dihydrochloride in 30 mL water) were added. After 15 min of incubation, the absorbance (540 nm) was measured with the EnSpire Plate Reader (PerkinElmer, Waltham, MA, USA). For the induction assay, the NO levels of the melittin peptides-treated samples were related to the DMSO-treated sample. For the inhibition assay, the NO levels of the melittin peptides-treated cells were correlated with the LPS-treated samples.

[3] = test system: HEK293T cells; assay: Ca2+ induction assay (Fluo-8); format: cell-based, human; details: Fluo-8, 0.25, 2.5, 25 µg/mL, partly already at 2.5 µg/mL, n = 4
Description: as §1, §2

[4] = test system: RAW264.7 cells; assay: Cell viability assay (WST-8/Orangu formazan) in RAW264.7 cells; format: cell-based, murine
Description: Figure 1 Toxicity characterization of cells treated with melittin peptides. (A,B) For the viability assay, RAW264.7 (A) or HEK293T (B) cells were treated with bee venom compounds in the indicated concentrations for 24 h. Cells were incubated with WST-8 and the formed formazan was detected by absorbance measurements. (C) For the proliferation assay, HMEC-1 cells were grown in low density and treated after 24 h with the indicated peptide (25 µg/mL) for 72 h. Cells were stained with crystal violet solution. The amount of DNA-bound crystal violet was detected by absorbance measurements. (D) The number of sub-diploidic cells was determined by staining with propidium iodide (PI) and quantified to assess apoptosis of HUVECs. Data are expressed as mean ± SEM. (A) n = 3, (B) n = 4, (C) n = 2–3, (D) n = 2. * p ≤ 0.05 versus control.
For assessing the cytotoxicity of all peptides, various cell types and assays were utilized. To determine the cell viability of HEK293T and RAW246.7 cells, the Orangu^TM assay (Cell Guidance Systems Ltd., Cambridge, UK) was used, as previously described. 2 × 10^5 HEK293T or 2 × 10^5 RAW246.7 were seeded in 96-well plates. Different concentrations (0, 0.25, 2.5, 25 µg/mL) of melittin peptides or vehicle (DMSO) were added. After 24 h of incubation at 37 °C and 5% CO2, 10 µL of Orangu^TM cell counting solution was added and incubated for 60 min. After incubation, absorbance was measured at a wavelength of 450 nm with a reference at 650 nm at an EnSpire 2300 Multimode Plate Reader (Perkin Elmer, Lübeck, Germany). To calculate cell viability, the absorbance of vehicle-treated cells was set to 100%, and the melittin derivates-treated samples were correlated to them.

Substance	inhibition of ionomycin-induced Ca2+ release [1]	inhibition of LPS-induced NO synthesis [2]	induction of Ca2+ release [3]	reduction of cell viability ([4]; RAW264.7, 25 µg/mL, 24 h, WST-8 formazan absorbance, vehicle = 100%, n = 3)	cytotoxicity in RAW264.7 ([4]; RAW264.7 macrophage, Discussion)
codesane	inhibited the ionomycin-induced Ca^2+ release; also recorded: inhibit Ca^2+ levels	prevented LPS-induced NO synthesis in a concentration-dependent manner	without inducing Ca^2+ release	–	–
halictin [Hal2]	inhibited the ionomycin-induced Ca^2+ release	–	without inducing Ca^2+ release	–	–
xylopin [Xac3]	–	prevented LPS-induced NO synthesis in a concentration-dependent manner; also recorded: inhibit NO synthesis	induced a significant release of Ca^2+	more than 90%	induced significant cytotoxicity
melectin	–	prevented LPS-induced NO synthesis in a concentration-dependent manner	induced a significant release of Ca^2+; also recorded: induce Ca^2+ release	–	–
halictin	inhibit Ca^2+ levels	–	–	–	–
xylopin [Xac1]	inhibit Ca^2+ levels	–	–	–	–
osmin	–	prevented LPS-induced NO synthesis in a concentration-dependent manner	induced a significant release of Ca^2+; also recorded: induce Ca^2+ release	–	–
